{"source": "patent US11554174B2", "about": "“Methods for improved protection and delivery of aminothiols and analogs thereof” (THE BURLINGTON HC RESEARCH GROUP, INC., priority 2015, dated 2023)", "key": {"C3H/10T1/2 cells": {"test_system": "C3H/10T1/2 cells", "details": "1 milliM; before, during and after radiation exposure; cited from earlier work"}, "[1]": {"details": "mice, aminothiol delivered as the phosphorothioate, cited from earlier work"}, "[2]": {"details": "some in vitro studies; cited from earlier work"}, "[3]": {"details": "mouse, in vivo; cited from earlier work"}, "[4]": {"details": "children; cited from earlier work"}, "radiation-induced tumors [5]": {"test_system": "radiation-induced tumors", "details": "WR2721 plus radiation; cited from earlier work"}, "Sa-NH tumors": {"test_system": "Sa-NH tumors", "details": "cited from earlier work"}, "Sa-NH sarcoma cells": {"test_system": "Sa-NH sarcoma cells", "details": "50 mg/kg every other day for 6 days; 12 days without; cited from earlier work"}, "[6]": {"test_system": "advanced malignant melanoma", "details": "cited from earlier work"}, "prostate cancer cells": {"test_system": "prostate cancer cells", "details": "literature reports; cited from earlier work"}, "[7]": {"test_system": "normal cells (liver, kidney, small intestine)", "details": "cited from earlier work"}, "[8]": {"test_system": "HPRT gene in mouse splenocytes", "details": "cited from earlier work"}, "angiostatin": {"test_system": "angiostatin", "details": "cited from earlier work"}, "radiation-induced tumors [9]": {"test_system": "radiation-induced tumors", "details": "400 mg/kg, 206 cGy gamma rays; cited from earlier work"}, "[10]": {"test_system": "TK6 human lymphoblastoid cells", "assay_type": "cell-based", "details": "1 milliM cyclophosphamide alone, 72 hours"}}, "note": "Like-named read-outs stand apart in the source and are kept apart here."}
{"smiles": "CNCCCNCCCS", "note": "[WR151326]", "values": [{"measurement": "protection factor against neoplastic transformation", "setting": "C3H/10T1/2 cells", "result": 1.8}]}
{"smiles": "NCCCNCCS", "note": "[WR-1065, 2-(3-aminopropylamino)-ethanethiol]", "values": [{"measurement": "maximally tolerated dose (MTD)", "setting": "[1]; i.p.", "result": 432, "unit": "mg/kg BW"}, {"measurement": "maximally tolerated dose (MTD)", "setting": "[1]; p.o.", "result": 720, "unit": "mg/kg BW"}, {"measurement": "lowest efficacious concentration", "setting": "[2]", "result": "≥ 0.4", "unit": "µM"}, {"measurement": "protection factor against neoplastic transformation", "setting": "C3H/10T1/2 cells", "result": 3.23}, {"measurement": "100% effective radioprotective dose", "setting": "[3]", "result": "about one half of the MTD"}]}
{"smiles": "NCCCNCCSP(=O)(O)O", "note": "[amifostine, S-2-(3-aminopropylamino)-ethylphosphorothioic Acid]", "values": [{"measurement": "single doses with no untoward effects", "setting": "[4]", "result": "up to 2700 mg/m2"}, {"measurement": "mice developing tumors", "setting": "radiation-induced tumors [5]", "result": 26, "unit": "%"}, {"measurement": "effect on pulmonary metastases", "setting": "Sa-NH tumors; 50 mg/kg", "result": "reduced significantly"}, {"measurement": "effect on pulmonary metastases", "setting": "Sa-NH tumors; 100 mg/kg", "result": "less effective"}, {"measurement": "effect on metastases", "setting": "Sa-NH tumors; 200 mg/kg", "result": "no effect"}, {"measurement": "time for tumors to reach ideal size for amputation", "setting": "Sa-NH sarcoma cells", "result": 13, "unit": "days"}, {"measurement": "minor responses", "setting": "[6]; combination of WR2721 and cisplatin, 3 out of 36 patients", "result": 8, "unit": "%"}, {"measurement": "partial response", "setting": "[6]; combination of WR2721 and cisplatin", "result": 53, "unit": "%"}, {"measurement": "effect upon prostate cancer cells", "setting": "prostate cancer cells", "result": "radioprotective effect"}, {"measurement": "level with no observable cytotoxicity", "setting": "[7]; kidney (in vivo)", "result": "> 17,000 picomol/10(6) cells"}, {"measurement": "level with no observable cytotoxicity", "setting": "[7]; liver (in vivo)", "result": "> 7400 picomol/10(6) cells"}, {"measurement": "level with no observable cytotoxicity", "setting": "[7]; small intestine (in vivo)", "result": "> 3000 picomol/10(6) cells"}, {"measurement": "reduction of cyclophosphamide-induced HPRT mutations", "setting": "[8]", "result": 8, "unit": "fold"}, {"measurement": "change of angiostatin levels", "setting": "angiostatin; 200 mg/ml (instead of 50 mg/ml)", "result": "did not change angiostatin levels"}, {"measurement": "increase of serum angiostatin levels", "setting": "angiostatin; mouse, in vivo", "result": 4, "unit": "fold"}, {"measurement": "extension of total life expectancy", "setting": "radiation-induced tumors [9]", "result": 65, "unit": "days"}]}
{"smiles": "N.N.[Cl][Pt][Cl]", "note": "[cisplatin]", "values": [{"measurement": "partial response", "setting": "[6]; cisplatin alone", "result": 10, "unit": "%"}]}
{"smiles": "O=P1(N(CCCl)CCCl)NCCCO1", "note": "(stereo not drawn) [cyclophosphamide]", "values": [{"measurement": "cell death", "setting": "[10]", "result": 70, "unit": "%"}]}
